Reference: US9695217B2, “Peptide domains that bind small molecules” (Iowa State University Research Foundation, Inc., priority 2010, dated 2017)
Where two headings read alike, the source gives them in different places.

Key:
[1] = Binding strength measured by surface plasmon resonance (BIACOR 3000, Sensor Chip NTA); conditions: read-out: Kd (dissociation constant for nickel), SPR
[2] = known polyhistidine binding domain, background statement; read-out: molar dissociation constant for nickel; cited from earlier work

- Kd [1]: ~23 pM
Sequence: YSHHHHHHLAGTA [C26]
- Kd [2]: 23 pM
